Measurements taken from paper PMC5601360 (Journal of Medicinal Chemistry, 2017).

Key:
human MOP receptor = target: T1, human MOP receptor (Homo sapiens, UniProt P35372); experiment: Competition binding assay, CHO-hMOP cell membranes, [3H]DAMGO; conditions: mean ± SEM, read-out: receptor binding affinity Ki MOP
T1 construct: expressed in transfected cells; host or cells: CHO-hMOP cells (gift of Dr. Lawrence Toll, SRI International)
Description: (§1) CHO cells stably expressing recombinant human KOP, MOP, or DOP receptors (CHO-hKOP, CHO-hMOP, and CHO-hDOP cell lines) were kindly provided by Dr. Lawrence Toll (SRI International, Menlo Park, CA). The CHO-hKOP cell line was maintained in Dulbecco’s Minimal Essential Medium (DMEM) supplemented with fetal bovine serum (FBS, 10%), penicillin/streptomycin (0.1%), L-glutamine (2 mM), and geneticin (400 μg/mL). The CHO-hMOP and CHO-hDOP cell lines were maintained in DMEM/Ham’s F-12 medium supplemented with FBS (10%), penicillin/streptomycin (0.1%), L-glutamine (2 mM), and geneticin (400 μg/mL). Cell cultures were maintained at 37 °C in 5% CO2 humidified air.
(§2) . Nonspecific binding was determined using 1–10 μM of the unlabeled counterpart of each radioligand. Assays were performed in 50 mM Tris-HCl buffer (pH 7.4) in a final volume of 1 mL. Cell membranes (15–20 μg) were incubated with the appropriate radioligand and various concentrations of test compound for 60 min at 25 °C. After incubation, reactions were terminated by rapid filtration through Whatman glass fiber filters. Filters were washed three times with 5 mL of ice-cold 50 mM Tris-HCl buffer (pH 7.4) using a Brandel M24R cell harvester (Gaithersburg, MD). Radioactivity retained on the filters was counted by liquid scintillation counting using a Beckman Coulter LS6500 (Beckman Coulter Inc., Fullerton, CA). All binding experiments were performed in duplicate and repeated at least three times. The inhibitory constant Ki values (in nM) were calculated from the competition binding curves by nonlinear regression analysis and the Cheng–Prusoff equation.[16]

human DOP receptor = target: T2, human DOP receptor (Homo sapiens, UniProt P41143); experiment: Competition binding assay, CHO-hDOP cell membranes, [3H]diprenorphine; conditions: mean ± SEM, read-out: receptor binding affinity Ki DOP
T2 construct: expressed in transfected cells; host or cells: CHO-hDOP cells (gift of Dr. Lawrence Toll, SRI International)
Description: as §1, §2

human KOP receptor [1] = target: T3, human KOP receptor (Homo sapiens, UniProt P41145); experiment: Competition binding assay, CHO-hKOP cell membranes, [3H]U69,593; conditions: for Ki: CHO-hKOP membranes, mean ± SEM, read-out: receptor binding affinity Ki KOP; for selectivity DOP/KOP: Ki ratio DOP/KOP; for selectivity MOP/KOP: Ki ratio MOP/KOP
T3 construct: expressed in transfected cells; host or cells: CHO-hKOP cells (gift of Dr. Lawrence Toll, SRI International)
Description: as §1
as §2, with “Nonspecific” for “. Nonspecific”

human KOP receptor [2] = target: T3, human KOP receptor; experiment: [35S]GTPγS binding assay using CHO-hKOP cell membranes; type: biochemical; conditions: for EC50: CHO-hKOP membranes, mean ± SEM; for Emax: read-out: [35S]GTPγS KOP % stim
Description: The binding of [^35S]GTPγS to membranes from CHO cells stably expressing human KOP receptors (CHO-hKOP cells) was conducted according to the published procedures.[9a],[9b] CHO-hKOP cell membranes were prepared in buffer A (20 mM HEPES, 10 mM MgCl2, and 100 mM NaCl, pH 7.4). Cell membranes (8–15 μg) in buffer A were incubated with 0.05 nM [^35S]GTPγS, 10 μM GDP, and various concentrations of test compound in a final volume of 1 mL for 60 min at 25 °C. Nonspecific binding was determined using 10 μM GTPγS, and the basal binding was determined in the absence of test ligand. Samples are filtered over glass fiber filters and counted as described for binding assays. […] To determine the KOP antagonist activity, a concentration–response curve for U69,593 was obtained by assessing the [^35S]GTPγS binding to CHO-hKOP cell membranes in the presence or absence of test compound, as previously described.[9b] For each compound, the Schild analysis was conducted, utilizing a full agonist–dose response curve in the presence of at least two concentrations of the antagonist. The equilibrium dissociation constant (Ke) was calculated from the equation Ke = [a]/(DR – 1), where “a” is the concentration of antagonist and DR the virtual shift of the agonist concentration–response curve to the right in the presence of a given concentration of antagonist. All experiments were performed in duplicate and repeated at least three times.

[3] = test system: acetic acid-induced writhing in CD1 mice; experiment: Acetic acid-induced writhing assay in mice after sc administration; type: in vivo; conditions: for ED50: Mus musculus, 0.5 h, CD1 mice, inhibition of writhing at 30 min after drug administration, read-out: antinociceptive ED50 (95% CI)
Description: Male CD1 mice (30–35 g, 6–8 weeks old) were obtained from the Center of Biomodels and Experimental Medicine (CBEM) (Innsbruck, Austria) or Charles River (Sulzfeld, Germany). Mice were group-housed in a temperature controlled room with a 12 h light/dark cycle and with free access to food and water. All animal studies were conducted in accordance with ethical guidelines and animal welfare standards according to Austrian regulations for animal research and were approved by the Committee of Animal Care of the Austrian Federal Ministry of Science and Research. Solutions of test compounds were prepared as 1% DMSO solutions in sterile physiological 0.9% saline and further diluted to working doses in saline solution. Test compounds or vehicle (saline) were administered by sc route in a volume of 10 μL/1 g of body weight. All doses are expressed in terms of salts. Separate groups of mice received the respective dose of compound, and individual mice were only used once for behavioral testing. Each experimental group included at least five animals.
Writhing was induced in male CD1 mice by intraperitoneal (ip) injection of a 0.6% acetic acid aqueous solution as described previously.[9a] Groups of mice were administered sc different doses of test compound or saline (control), and then 5 min prior to testing (25 min after drug or saline) each animal received an ip injection of acetic acid solution. Each mouse was placed in individual transparent Plexiglas chambers, and the number of writhes was counted during a 10 min observation period. […] For the antagonism studies, nor-BNI (20 mg/kg) was sc administered 24 h before 2 (5 mg/kg) and 17 (10 mg/kg) was sc administered 15 min before U50,488 (2 mg/kg).

[4] = percentage stimulation relative to the KOP full agonist U69,593

| SMILES | Ki (human MOP receptor) | Ki (human DOP receptor) | Ki (human KOP receptor [1]) | selectivity DOP/KOP (human KOP receptor [1]) | selectivity MOP/KOP (human KOP receptor [1]) | EC50 (human KOP receptor [2]) | Emax (human KOP receptor [2]; [4]) | ED50 ([3]; sc) | [35S]GTPγS KOP % stim (human KOP receptor [2]; [4]) | decrease in in vitro agonist potency vs compound 3 (human KOP receptor [2]; EC50 comparison) | reduction in antinociceptive potency vs compound 3 ([3]; sc, ED50 comparison) | Kd (human KOP receptor [2]; antagonist Ke at the KOP receptor against U69,593) | functional activity profile at the KOP receptor (human KOP receptor [2]; in vitro, [35S]GTPγS) | agonist activity in vivo (effect on pain behavior alone) ([3]; 10 mg/kg sc, compared to control mice) | antagonism of U50,488-induced antinociception ([3]; 17 10 mg/kg sc 15 min before U50,488 2 mg/kg sc) | increase in KOP affinity vs compound 8 (human KOP receptor [1]; Ki comparison) | increase in selectivity KOP vs DOP compared to compound 14 (human KOP receptor [1]; selectivity ratio comparison) | increase in selectivity KOP vs MOP compared to compound 14 (human KOP receptor [1]; selectivity ratio comparison) |
| --- | --- | --- | --- | --- | --- | --- | --- | --- | --- | --- | --- | --- | --- | --- | --- | --- | --- | --- |
| Cl.Oc1ccc(CCN(CCc2cccc(O)c2)CC2CCC2)cc1 [Compound 14, 3-[2-[(Cyclobutylmethyl)(4-hydroxyphenethyl)amino]ethyl]phenol Hydrochloride] | 16.1 ± 4.7 nM | 428 ± 93 nM | 3.43 ± 0.75 nM | 125 | 5 | 22.2 ± 3.6 nM | 76.4 ± 1.1% | 1.73 mg/kg |  |  |  |  |  |  |  |  |  |  |
| C=CCN(CCc1cccc(O)c1)CCc1cccc(O)c1.Cl [Compound 10, 3,3′-[2,2′-(Allylazanediyl)bis(ethane-2,1-diyl)]diphenol Hydrochloride] | 358 ± 28 nM | 738 ± 16 nM | 19.1 ± 0.6 nM | 39 | 19 | 154 ± 62 nM | 37.5% |  | 37.5 ± 0.6% |  |  |  |  |  |  |  |  |  |
| CC(C)CCN(CCc1cccc(O)c1)CCc1cccc(O)c1.Cl [Compound 13, 3,3′-[2,2′-(Isoamylazanediyl)bis(ethane-2,1-diyl)]diphenol Hydrochloride] | 211 ± 17 nM | 1470 ± 147 nM | 2.1 ± 0.26 nM | 699 | 100 | 16.6 ± 0.7 nM | 65.6 ± 3.4% | 2.63 mg/kg |  |  |  |  |  |  |  |  |  |  |
| Cl.Oc1cccc(CCN(CCc2ccccc2)C2CCC2)c1 [Compound 6, 3-[2-[(Cyclobutyl)(phenethyl)amino]ethyl]phenol Hydrochloride] | 670 ± 174 nM | 3540 ± 38 nM | 10.3 ± 1.2 nM | 344 | 65 | 46.1 ± 13.9 nM | 50.7 ± 5% |  |  |  |  |  |  |  |  |  |  |  |
| Cl.Oc1cccc(CCN(CCc2cccc(O)c2)CC2CCCC2)c1 [Compound 12, 3,3′-[2,2′-(Cyclopentylmethylazanediyl)bis(ethane-2,1-diyl)]diphenol Hydrochloride] | 584 ± 119 nM | 2780 ± 545 nM | 0.31 ± 0.04 nM | 8952 | 1884 | 13.7 ± 3.5 nM | ≥ 80% | 1.19 mg/kg |  | about 3 fold | about 2 fold |  |  |  |  |  |  |  |
| Cl.Oc1ccc(CCN(CCc2cccc(O)c2)CC2CC2)cc1 [Compound 17, 3-[2-[(Cyclopropylmethyl)(4-hydroxyphenethyl)amino]ethyl]phenol Hydrochloride] | 460 ± 127 nM | > 10000 nM | 3.56 ± 0.94 nM | >2800 | 129 |  |  |  |  |  |  | 24.3 ± 1.5 nM | KOP antagonism | did not affect pain behavior | complete reversal of U50,488-induced analgesia |  |  |  |
| Cl.Oc1cccc(CCN(CCc2cccc(O)c2F)CC2CCC2)c1 [Compound 20, 3-[2-[(Cyclobutylmethyl)(3-hydroxyphenethyl)amino]ethyl]-2-fluorophenol Hydrochloride] | 557 ± 198 nM | > 10000 nM | 0.12 ± 0.01 nM | >83000 | 4642 | 1.49 ± 0.04 nM | 57.5 ± 4.4% | 2.25 mg/kg |  |  |  |  |  |  |  | about 3 fold |  |  |
| Cl.Oc1ccc(CCN(CCc2cccc(O)c2F)CC2CCC2)cc1 [Compound 21, 3-[2-[(Cyclobutylmethyl)(4-hydroxyphenethyl)amino]ethyl]-2-fluorophenol Hydrochloride] | 523 ± 33 nM | 1310 ± 281 nM | 3.37 ± 1.54 nM | 389 | 155 | 36.7 ± 14 nM | 69.1 ± 1.9% | 2.14 mg/kg |  |  |  |  |  |  |  |  | 3 fold | 31 fold |
| Cl.Oc1cccc(CCN(CCc2cccc(O)c2)CC2CCC2)c1 [Compound 8, 3,3′-[2,2′-(Cyclobutylmethylazanediyl)bis(ethane-2,1-diyl)]diphenol Hydrochloride] | 230 ± 43 nM | 3340 ± 844 nM | 0.38 ± 0.09 nM | 8789 | 605 | 4.44 ± 1.36 nM | 71.1 ± 5.2% | 1.71 mg/kg |  |  |  |  |  |  |  |  |  |  |
| c1ccc(CCN(CCc2ccccc2)CC2CCC2)cc1 [Compound 22, N-(Cyclobutylmethyl)-N-phenethyl-2-phenylethanamine] | 1060 ± 263 nM | 2180 ± 881 nM | 79.1 ± 12.5 nM | 28 | 13 | 359 ± 116 nM | ≥ 80% |  |  |  |  |  |  |  |  |  |  |  |
| Cl.Oc1cccc(CCN(CCc2cccc(O)c2)CC2CC2)c1 [Compound 9, 3,3′-[2,2′-(Cyclopropylmethylazanediyl)bis(ethane-2,1-diyl)]diphenol Hydrochloride] | 631 ± 215 nM | 2850 ± 720 nM | 4.62 ± 0.11 nM | 617 | 137 | 20.6 ± 0.6 nM | 51.3 ± 7.6% | 4.73 mg/kg |  |  |  |  |  |  |  |  |  |  |
| C=CCN(CCc1ccc(O)cc1)CCc1cccc(O)c1 [Compound 16] | 192 ± 17 nM | 1100 ± 485 nM | 43.5 ± 1.5 nM | 25 | 4 | 248 ± 89 nM | 28.5% |  |  |  |  |  |  |  |  |  |  |  |
